Series [1] deals with Rattus norvegicus. Description: Hypocholesterolemic activity in Wistar rat model with high cholesterol diet assessed as reduction in liver lobular inflammation at 6 mg/kg, po qd measured after 23 days by H and E staining assay. In kind it is functional. As to conditions: time 23 day.
For series [2], the system named is Rattus norvegicus. Description: Hypocholesterolemic activity in Wistar rat model with high cholesterol diet assessed as reduction in liver NAFLD activity score at 6 mg/kg, po qd measured after 23 days by H and E staining assay. As to conditions: time 23 day. In kind it is functional.
In series [3] the test system is Rattus norvegicus. Briefly: Hypocholesterolemic activity in Wistar rat model with high cholesterol diet assessed as amount of LDL-C in serum at 6 mg/kg, po qd measured after 23 days by microplate reader assay relative to control. It is filed as functional. As to conditions: time 23 day.
The subject of series [4] is Rattus norvegicus. Description: Effect on liver weight in Wistar rat model with high cholesterol diet at 6 mg/kg, po qd measured after 23 days. It is filed as ADME, organism-based. The following applies: in vivo, 552 h, time 23 day.
Series [5] deals with Rattus norvegicus. Description: Effect on Wistar rat model with high cholesterol diet assessed as ratio of liver weight to body weight at 6 mg/kg, po qd measured after 23 days. As to conditions: in vivo, 552 h, time 23 day. In kind it is ADME, organism-based.
The subject of series [6] is Rattus norvegicus. Description: Hypocholesterolemic activity in Wistar rat model with high cholesterol diet assessed as liver NAFLD activity score at 6 mg/kg, po qd measured after 23 days by H and E staining assay relative to control. In kind it is functional. The following applies: time 23 day.
In series [7] the test system is Rattus norvegicus. Description: Effect on body weight gain in Wistar rat model with high cholesterol diet at 6 mg/kg, po qd measured after 23 days relative to control. In kind it is ADME, organism-based. As to conditions: in vivo, 552 h, time 23 day.
The subject of series [8] is Rattus norvegicus. Briefly: Effect on body weight in Wistar rat model with high cholesterol diet at 6 mg/kg, po qd measured after 23 days. The following applies: in vivo, 552 h, time 23 day. In kind it is ADME, organism-based.
Series [9] has as its system Rattus norvegicus. Briefly: Hypocholesterolemic activity in Wistar rat model with high cholesterol diet assessed as amount of Triglycerides in serum at 6 mg/kg, po qd measured after 23 days by microplate reader assay relative to control. In kind it is functional. As to conditions: time 23 day.
In series [10] the test system is Rattus norvegicus. Description: Hypocholesterolemic activity in Wistar rat model with high cholesterol diet assessed as reduction of steatosis at 6 mg/kg, po qd measured after 23 days by H and E staining assay relative to control. In kind it is functional. The arrangement: scale not given: the % may be the effect or the level left. The following applies: time 23 day.

The test system of series [11] is Rattus norvegicus. Briefly: Hypocholesterolemic activity in Wistar rat model with high cholesterol diet assessed as amount of Total cholesterol in serum at 6 mg/kg, po qd measured after 23 days by microplate reader assay relative to control. In kind it is functional. As to conditions: time 23 day.
The test system of series [12] is Rattus norvegicus. Briefly: Hypocholesterolemic activity in Wistar rat model with high cholesterol diet assessed as amount of HDL-C in serum at 6 mg/kg, po qd measured after 23 days by microplate reader assay relative to control. In kind it is functional. The following applies: time 23 day.
The subject of series [13] is Rattus norvegicus. Description: Hypocholesterolemic activity in Wistar rat model with high cholesterol diet assessed as reduction of steatosis at 6 mg/kg, po qd measured after 23 days by H and E staining assay. It is filed as functional. As to conditions: time 23 day.

On to `COc1cc(C[C@H](CO[C@@H]2O[C@H](CO)[C@@H](O)[C@H](O)[C@H]2O)[C@@H](CO[C@@H]2O[C@H](CO)[C@@H](O)[C@H](O)[C@H]2O)Cc2ccc(O)c(OC)c2)ccc1O` [(+)-SECOISOLARICIRESINOLDIGLUCOSIDE], for which the Activity was determined as 1 in the series with Rattus norvegicus [1]; 2.4 in the series on Rattus norvegicus [2]; 14% in the series on Rattus norvegicus [3]; 10.4 g in the series on Rattus norvegicus [4]; 31.5 g/kg in the series with Rattus norvegicus [5]; 14.3% in the series with Rattus norvegicus [6]. Also, the Activity turned out to be 32% in the series with Rattus norvegicus [7]; 330 g with Rattus norvegicus [8]; 15% in the series with Rattus norvegicus [9]; 22.2% in the series with Rattus norvegicus [10]; 10% with Rattus norvegicus [11]; 24% in the series with Rattus norvegicus [12]. Moreover, the Activity with Rattus norvegicus [13] was 1.4.

The record behind these values is ChEMBL document CHEMBL5032531, “Hypocholesterolemic Efficacy of Secoisolariciresinol Diglucoside and Its Polymer in Rat” (J Nat Prod, 2021).
